Laboratory results as given in patent US20240270701A1, “BETA ADRENERGIC AGONIST AND METHODS OF USING THE SAME” (Curasen Therapeutics, Inc., priority 2021, published 2024).
Where two headings read alike, the source gives them in different places.

Legend:
B1-AR = target: T1, B1-AR (Homo sapiens, UniProt P08588); assay: cAMP Gs dynamic HTRF assay, cells expressing beta-adrenergic receptor (CHO-K1), B1-AR; type: cell-based; settings: for EC50: cAMP HTRF, read-out: pEC50 [B1-AR] (converted); for Emax: relative to full agonist isoproterenol, read-out: Emax (% iso) (%) [B1-AR]
T1 construct: expressed in transfected cells; host or cells: CHO-K1
T1 sequence (P08588 whole entry, species assumed): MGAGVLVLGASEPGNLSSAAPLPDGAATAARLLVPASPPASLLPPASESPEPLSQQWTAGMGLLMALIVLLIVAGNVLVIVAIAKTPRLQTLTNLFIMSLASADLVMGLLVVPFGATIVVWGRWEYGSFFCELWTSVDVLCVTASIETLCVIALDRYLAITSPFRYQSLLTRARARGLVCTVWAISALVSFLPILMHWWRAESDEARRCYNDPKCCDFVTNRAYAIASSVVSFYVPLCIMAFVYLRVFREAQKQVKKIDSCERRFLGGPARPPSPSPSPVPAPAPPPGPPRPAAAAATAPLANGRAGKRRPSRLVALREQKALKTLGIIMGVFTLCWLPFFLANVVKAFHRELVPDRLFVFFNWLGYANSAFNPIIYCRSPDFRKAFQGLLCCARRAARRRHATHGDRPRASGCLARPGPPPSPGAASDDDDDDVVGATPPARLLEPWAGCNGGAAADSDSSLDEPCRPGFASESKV

B2-AR = target: T2, B2-AR (Homo sapiens, UniProt P07550); assay: cAMP Gs dynamic HTRF assay, cells expressing beta-adrenergic receptor (CHO-K1), B2-AR; type: cell-based; settings: for EC50: cAMP HTRF, read-out: pEC50 [B2-AR] (converted); for Emax: relative to full agonist isoproterenol, read-out: Emax (% iso) (%) [B2-AR]
T2 construct: expressed in transfected cells; host or cells: CHO-K1
T2 sequence (P07550 whole entry, species assumed): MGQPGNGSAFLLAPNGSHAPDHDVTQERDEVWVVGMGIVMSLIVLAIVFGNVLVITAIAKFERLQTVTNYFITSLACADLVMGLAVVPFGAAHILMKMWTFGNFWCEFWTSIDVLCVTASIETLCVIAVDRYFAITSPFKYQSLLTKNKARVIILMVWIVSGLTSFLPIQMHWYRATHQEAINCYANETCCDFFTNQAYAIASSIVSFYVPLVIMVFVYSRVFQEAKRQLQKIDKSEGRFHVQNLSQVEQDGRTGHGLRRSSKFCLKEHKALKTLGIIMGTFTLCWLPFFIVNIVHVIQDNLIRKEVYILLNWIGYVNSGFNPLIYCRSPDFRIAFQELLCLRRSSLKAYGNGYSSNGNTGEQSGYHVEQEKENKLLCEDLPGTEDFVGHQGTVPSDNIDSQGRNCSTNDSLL

Row | SMILES | EC50 (B1-AR) | Emax (B1-AR) | EC50 (B2-AR; CHO-K1 cells) | Emax (B2-AR; CHO-K1 cells) | Emax (B2-AR; CHO-K1, CHO-K1 cells)
1 | Cc1n[nH]c2cccc([C@@H](O)CNC3CCC3)c12 [I-166] | 100 to 1000 nM | 50 to 70% | 10 to 100 nM | 70 to 90% | –
2 | Cc1n[nH]c2cccc([C@@H](O)CNC3CC3)c12 [I-167] | > 1000 nM | 70 to 90% | 100 to 1000 nM | – | 70 to 90%
3 | Cc1n[nH]c2cccc([C@@H](O)CNC3(C)CCC3)c12 [I-168] | 10 to 100 nM | 70 to 90% | < 10 nM | 70 to 90% | –
4 | Cc1n[nH]c2cccc([C@@H](O)CNC3(C)CC3)c12 [I-169] | 100 to 1000 nM | 70 to 90% | 10 to 100 nM | 70 to 90% | –
5 | Cc1n[nH]c2cccc([C@@H](O)CNC(C)C)c12 [I-170] | 100 to 1000 nM | 70 to 90% | 10 to 100 nM | 70 to 90% | –
6 | CCC(C)(C)NC[C@H](O)c1cc(Cl)c(N)nc1C [I-171] | 10 to 100 nM | 70 to 90% | < 10 nM | – | > 90%
7 | CCc1n[nH]c2cccc([C@@H](O)CNC(C)(C)C)c12 [I-172] | 100 to 1000 nM | 70 to 90% | 100 to 1000 nM | 50 to 70% | –
8 | Cc1n[nH]c2cccc([C@@H](O)CNC(C)(C)CO)c12 [I-173] | 100 to 1000 nM | 70 to 90% | 100 to 1000 nM | – | 70 to 90%
9 | Cc1n[nH]c2cccc([C@@H](O)CNCC(C)C)c12 [I-174] | > 1000 nM | 70 to 90% | 100 to 1000 nM | 50 to 70% | –
10 | CC(C)(C)NC[C@H](O)c1cccc2[nH]nc(C(F)F)c12 [I-175] | 100 to 1000 nM | 70 to 90% | 100 to 1000 nM | 70 to 90% | –
11 | Cc1ncccc1[C@@H](O)CNC(C)(C)CO [I-176] | > 1000 nM | 50 to 70% | 100 to 1000 nM | – | 70 to 90%
12 | Cc1ncccc1[C@@H](O)CNC1(C)CCC1 [I-177] | > 1000 nM | 70 to 90% | 10 to 100 nM | – | > 90%
13 | Cc1nc(N)c(Cl)cc1[C@@H](O)CNC1CC(F)(F)C1 [I-178] | > 1000 nM | 50 to 70% | 100 to 1000 nM | – | > 90%
14 | Cc1nc(N)c(F)cc1[C@@H](CO)NC(C)(C)C [I-179] | > 1000 nM | < 50% | > 1000 nM | < 50% | –
15 | Cc1nc(N)c(F)cc1[C@H](CO)NC(C)(C)C [I-180] | > 1000 nM | < 50% | > 1000 nM | < 50% | –
16 | Cc1ncccc1[C@@H](O)CNC1CC(F)(F)C1 [I-181] | > 1000 nM | < 50% | > 1000 nM | 50 to 70% | –
17 | Cc1ncccc1[C@@H](O)CNC1CC(C)(C)C1 [I-182] | > 1000 nM | < 50% | > 1000 nM | 50 to 70% | –
18 | Cc1ncccc1[C@@H](O)CNCC(C)C [I-183] | > 1000 nM | < 50% | > 1000 nM | – | 50 to 70%
19 | Cc1ncccc1[C@@H](O)CNC(C)C [I-184] | > 1000 nM | 70 to 90% | 100 to 1000 nM | – | 70 to 90%
20 | Cc1nc(N)c(Cl)cc1[C@H](CO)NC1CC(F)(F)C1 [I-185] | > 1000 nM | < 50% | > 1000 nM | < 50% | –
21 | Cc1nc(N)c(Cl)cc1[C@@H](CO)NC1CC(F)(F)C1 [I-186] | > 1000 nM | < 50% | > 1000 nM | < 50% | –
22 | Cc1ncccc1[C@@H](O)CNC1CCC1 [I-187] | > 1000 nM | 70 to 90% | 100 to 1000 nM | – | 70 to 90%
23 | Cc1ncccc1[C@@H](O)CNC1(C)CC1 [I-188] | 100 to 1000 nM | > 90% | 10 to 100 nM | – | > 90%
24 | CC(C)(C)NC[C@H](O)c1ccc(Cl)c2[nH]nc(F)c12 [I-189] | < 10 nM | > 90% | < 10 nM | – | 70 to 90%
